Data reported in patent publication US11040981B2, “Pyrrolotriazine compounds and methods of inhibiting TAM kinases” (Syros Pharmaceuticals, Inc., priority 2017, dated 2021).

Columns and labels:
TYRO3 = target: T1, TYRO3 (Homo sapiens, UniProt Q06418); assay: TR-FRET kinase activity assay, TYRO3; format: biochemical; conditions: ATP at Km, 60 minutes
T1 sequence (Q06418 41-890): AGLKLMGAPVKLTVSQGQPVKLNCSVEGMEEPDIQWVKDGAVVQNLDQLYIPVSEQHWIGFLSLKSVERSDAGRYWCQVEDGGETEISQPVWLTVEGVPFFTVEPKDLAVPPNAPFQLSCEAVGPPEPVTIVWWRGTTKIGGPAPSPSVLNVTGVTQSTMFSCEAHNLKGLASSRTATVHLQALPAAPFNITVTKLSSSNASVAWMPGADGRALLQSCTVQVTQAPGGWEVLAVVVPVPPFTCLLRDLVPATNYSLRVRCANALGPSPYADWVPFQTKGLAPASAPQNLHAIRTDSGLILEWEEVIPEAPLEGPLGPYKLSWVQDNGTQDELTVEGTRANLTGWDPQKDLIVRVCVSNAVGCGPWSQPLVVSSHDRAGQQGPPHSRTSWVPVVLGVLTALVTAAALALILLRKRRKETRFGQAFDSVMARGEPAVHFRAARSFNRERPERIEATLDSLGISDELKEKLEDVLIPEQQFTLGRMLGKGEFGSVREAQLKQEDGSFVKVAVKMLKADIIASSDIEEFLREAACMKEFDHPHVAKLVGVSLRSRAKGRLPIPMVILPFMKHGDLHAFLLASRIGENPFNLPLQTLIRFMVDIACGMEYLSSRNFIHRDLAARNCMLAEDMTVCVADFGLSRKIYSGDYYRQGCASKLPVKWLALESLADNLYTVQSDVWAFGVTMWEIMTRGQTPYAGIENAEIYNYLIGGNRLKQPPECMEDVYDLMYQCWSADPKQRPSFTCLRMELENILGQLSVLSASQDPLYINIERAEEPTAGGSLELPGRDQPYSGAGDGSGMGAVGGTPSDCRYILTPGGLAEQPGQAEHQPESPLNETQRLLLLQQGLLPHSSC
How it was run: (§1)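 IC50 reflects the drop in TR-FRET between Eu anti-phosphotyrosine antibody and labelled peptide after a 60-minute room-temperature reaction. Buffer was 50 mM HEPES pH 7.5 with 10 mM MgCl2, 1 mM EGTA, 0.01% Brij 35 and 1 mM DTT, with ATP at Km per enzyme and EDTA quench.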

MERTK = target: T2, MERTK (Homo sapiens, UniProt Q12866); assay: TR-FRET kinase activity assay, MERTK; format: biochemical; conditions: for IC50: TR-FRET activity assay, ATP at Km, 60 minutes, read-out: Mer IC50
T2 sequence (Q12866 21-999): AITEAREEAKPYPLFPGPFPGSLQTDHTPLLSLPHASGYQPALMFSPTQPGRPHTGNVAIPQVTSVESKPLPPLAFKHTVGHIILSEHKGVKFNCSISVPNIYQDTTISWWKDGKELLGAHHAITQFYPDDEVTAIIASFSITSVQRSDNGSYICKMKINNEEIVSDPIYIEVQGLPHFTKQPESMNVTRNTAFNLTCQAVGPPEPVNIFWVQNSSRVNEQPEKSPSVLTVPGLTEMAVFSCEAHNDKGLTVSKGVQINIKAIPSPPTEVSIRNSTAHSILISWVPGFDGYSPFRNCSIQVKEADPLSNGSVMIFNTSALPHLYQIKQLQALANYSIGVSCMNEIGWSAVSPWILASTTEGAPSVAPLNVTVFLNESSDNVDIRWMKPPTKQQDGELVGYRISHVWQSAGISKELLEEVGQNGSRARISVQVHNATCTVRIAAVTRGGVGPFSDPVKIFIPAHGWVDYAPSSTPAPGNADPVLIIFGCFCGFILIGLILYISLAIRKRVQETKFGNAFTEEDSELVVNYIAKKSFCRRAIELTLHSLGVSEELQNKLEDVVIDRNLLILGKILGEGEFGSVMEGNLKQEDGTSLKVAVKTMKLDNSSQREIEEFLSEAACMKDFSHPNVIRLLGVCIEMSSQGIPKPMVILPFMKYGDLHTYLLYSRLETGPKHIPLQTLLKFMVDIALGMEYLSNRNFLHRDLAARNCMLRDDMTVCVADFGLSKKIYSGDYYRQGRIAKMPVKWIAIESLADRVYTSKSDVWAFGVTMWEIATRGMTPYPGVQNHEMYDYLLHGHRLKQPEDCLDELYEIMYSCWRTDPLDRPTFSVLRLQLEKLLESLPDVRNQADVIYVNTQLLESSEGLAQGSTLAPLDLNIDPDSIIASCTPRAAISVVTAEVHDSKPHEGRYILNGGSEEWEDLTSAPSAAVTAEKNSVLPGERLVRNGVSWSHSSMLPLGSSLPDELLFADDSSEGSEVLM
How it was run: as §1

[1] = ratio of Mer to FLT3: FLT3 IC50/Mer IC50
[2] = ratio calculated as FLT3 IC50/Mer IC50

Row | IC50 (TYRO3) [µM] | IC50 (MERTK) [µM] | FLT3/Mer ratio (FLT3 IC50/Mer IC50) (MERTK; [1]) | FLT3/Mer ratio (FLT3 IC50/Mer IC50) (MERTK; [2]) | Structure (SMILES)
1 | ≤ 0.1 | ≤ 0.1 | +++ (“+++” represents a ratio of >100) |  | COC[C@H](C)Nc1ncc2c(-c3cnn(CC4CCCO4)c3)cc([C@H]3CC[C@H](O)CC3)n2n1 (stereo partly drawn) [Compound 380]
2 | ≤ 0.1 | ≤ 0.1 | +++ (“+++” represents a ratio of >100) |  | COC[C@H](C)Nc1ncc2c(-c3ccnc(C)c3)cc([C@H]3CC[C@@](C)(O)CC3)n2n1 [Compound 381]
3 | ≤ 0.1 | ≤ 0.1 | +++ (“+++” represents a ratio of >100) |  | COC[C@H](C)Nc1ncc2c(-c3cnn(CCC#N)c3)cc([C@H]3CC[C@](C)(O)CC3)n2n1 [Compound 382]
4 | ≤ 0.1 | ≤ 0.1 | +++ (“+++” represents a ratio of >100) |  | CNC(=O)c1cc(-c2cc([C@H]3CC[C@H](O)CC3)n3nc(N[C@@H](C)CC(F)(F)F)ncc23)ccn1 [Compound 384]
5 | ≤ 0.1 | ≤ 0.1 | +++ (“+++” represents a ratio of >100) |  | CNC(=O)c1cc(-c2cc([C@H]3CC[C@H](O)CC3)n3nc(N[C@@H](C)COC(F)F)ncc23)cc(C)n1 [Compound 385]
6 | ≤ 0.1 | ≤ 0.1 | +++ (“+++” represents a ratio of >100) |  | COC[C@H](C)Nc1ncc2c(-c3ccnc(O[C@H]4CCNC4)c3)cc([C@H]3CC[C@H](O)CC3)n2n1 [Compound 386]
7 | ≤ 0.1 | ≤ 0.1 | +++ (“+++” represents a ratio of >100) |  | COC[C@H](C)Nc1ncc2c(-c3ccnc(O[C@H]4CCCNC4)c3)cc([C@H]3CC[C@H](O)CC3)n2n1 [Compound 389]
8 | ≤ 0.1 | ≤ 0.1 | +++ (“+++” represents a ratio of >100) |  | COC[C@H](C)Nc1ncc2c(-c3ccnc(O[C@@H]4CCCNC4)c3)cc([C@H]3CC[C@H](O)CC3)n2n1 [Compound 390]
9 | ≤ 0.1 | ≤ 0.1 | +++ (“+++” represents a ratio of >100) |  | COC[C@H](C)Nc1ncc2c(-c3ccnc(C)c3)cc([C@H]3CC[C@](C)(O)CC3)n2n1 [Compound 391]
10 | ≤ 0.1 | ≤ 0.1 | +++ (“+++” represents a ratio of >100) |  | COC[C@H](C)Nc1ncc2c(-c3cnn(CC4CCOCC4)c3)cc([C@H]3CC[C@H](O)CC3)n2n1 [Compound 392]
11 | ≤ 0.1 | ≤ 0.1 | +++ (“+++” represents a ratio of >100) |  | CC(COC(F)F)Nc1ncc2c(-c3cnn(C(C)(C)C(=O)N4CCOCC4)c3)cc(C3CCC(O)CC3)n2n1 (stereo not drawn) [Compound 393]
12 | ≤ 0.1 | ≤ 0.1 | +++ (“+++” represents a ratio of >100) |  | COC[C@H](C)Nc1ncc2c(-c3cnn(C4CCN(C)C4=O)c3)cc([C@H]3CC[C@H](O)CC3)n2n1 (stereo partly drawn) [Compound 394, 3-(4-(7-((trans)-4-hydroxycyclohexyl)-2-(((S)-1-methoxypropan-2-yl)amino)pyrrolo[2,1-f][1,2,4]triazin-5-yl)-1H-pyrazol-1-yl)-1-methylpyrrolidin-2-one]
13 | ≤ 0.1 | ≤ 0.1 | +++ (“+++” represents a ratio of >100) |  | COC[C@H](C)Nc1ncc2c(-c3cnn(CC4CC(=O)N(C)C4)c3)cc([C@H]3CC[C@H](O)CC3)n2n1 (stereo partly drawn) [Compound 395]
14 | ≤ 0.1 | ≤ 0.1 |  | +++ (“+++” represents a ratio of >100) | COC[C@H](C)Nc1ncc2c(-c3cnn([C@@H]4CCN(C(C)=O)C4)c3)cc([C@H]3CC[C@H](O)CC3)n2n1 [Compound 396]
15 | ≤ 0.1 | ≤ 0.1 |  | +++ (“+++” represents a ratio of >100) | COC[C@H](C)Nc1ncc2c(-c3cnn([C@H]4CCN(C(C)=O)C4)c3)cc([C@H]3CC[C@H](O)CC3)n2n1 [Compound 397]
16 | ≤ 0.1 | ≤ 0.1 |  | +++ (“+++” represents a ratio of >100) | CNC(=O)c1cncc(-c2cc([C@H]3CC[C@H](O)CC3)n3nc(N[C@@H](C)COC(F)F)ncc23)c1 [Compound 398]
17 | ≤ 0.1 | ≤ 0.1 |  | +++ (“+++” represents a ratio of >100) | CC1(Nc2ncc3c(-c4cnn(C5COC5)c4)cc(C4CCC(O)CC4)n3n2)COC1 (stereo not drawn) [Compound 399]
18 | ≤ 0.1 | ≤ 0.1 |  | +++ (“+++” represents a ratio of >100) | COC[C@H](C)Nc1ncc2c(-c3ccnc(O[C@H]4CCN(C)C4)c3)cc([C@H]3CC[C@H](O)CC3)n2n1 [Compound 400]
19 | ≤ 0.1 | ≤ 0.1 |  | +++ (“+++” represents a ratio of >100) | COC[C@H](C)Nc1ncc2c(-c3ccnc(O[C@@H]4CCNC4)c3)cc([C@H]3CC[C@H](O)CC3)n2n1 [Compound 401]
20 | ≤ 0.1 | ≤ 0.1 |  | +++ (“+++” represents a ratio of >100) | COC[C@H](C)Nc1ncc2c(-c3ccnc(O[C@@H]4CCN(C)C4)c3)cc([C@H]3CC[C@H](O)CC3)n2n1 [Compound 402]
21 | ≤ 0.1 | ≤ 0.1 |  | +++ (“+++” represents a ratio of >100) | COC[C@H](C)Nc1ncc2c(-c3ccnc(O[C@H]4CCCN(C)C4)c3)cc([C@H]3CC[C@H](O)CC3)n2n1 [Compound 403]
22 | ≤ 0.1 | ≤ 0.1 |  | +++ (“+++” represents a ratio of >100) | COC[C@H](C)Nc1ncc2c(-c3ccnc(O[C@@H]4CCCN(C)C4)c3)cc([C@H]3CC[C@H](O)CC3)n2n1 [Compound 404]
23 | ≤ 0.1 | ≤ 0.1 |  | +++ (“+++” represents a ratio of >100) | C[C@@H](COC(F)F)Nc1ncc2c(-c3ccnc(N4CCOCC4)c3)cc([C@H]3CC[C@H](O)CC3)n2n1 [Compound 405]
24 | ≤ 0.1 | ≤ 0.1 |  | +++ (“+++” represents a ratio of >100) | CNC(=O)c1ncc(-c2cc([C@H]3CC[C@H](O)CC3)n3nc(N[C@@H](C)COC(F)F)ncc23)cn1 [Compound 407]

Row | Structure (SMILES) | IC50 (TYRO3) [µM] | IC50 (MERTK) [µM] | FLT3/Mer ratio (FLT3 IC50/Mer IC50) (MERTK; [1]) | FLT3/Mer ratio (FLT3 IC50/Mer IC50) (MERTK; [2])
25 | C[C@@H](CN(C)C)Nc1ncc2c(-c3cnn(C4COC4)c3)cc([C@H]3CC[C@H](O)CC3)n2n1 [Compound 387] | 0.1 to 1 | 0.1 to 1 | ++ (“++” represents a ratio of between 10 and 100) | 
26 | C[C@H](CN(C)C)Nc1ncc2c(-c3cnn(C4COC4)c3)cc([C@H]3CC[C@H](O)CC3)n2n1 [Compound 388] | 1 to 10 | 0.1 to 1 | ++ (“++” represents a ratio of between 10 and 100) | 
27 | COC[C@H](C)Nc1ncc2c(-c3cnn(C4COC4)c3)cc(C3CCC(=O)CC3)n2n1 [Compound 406] | ≤ 0.1 | ≤ 0.1 |  | +++ (“+++” represents a ratio of >100)
